Laboratory results as given in patent US4731451A, “N-((2-oxo-3(2H)benzothiazolyl)methyl)-2-chloroacetanilides” (Monsanto Company, priority 1980, dated 1988).

Key:
Assay type in all cases: in vivo
[1] = tested on: Hemp Sesbania; experiment: Pre-emergent herbicidal activity (Table III)
Experimental: (§1) The pre-emergence tests are conducted as follows:
(§2) A good grade of top soil is placed in aluminum pans and compacted to a depth of three-eighths to one-half inch from the top of the pan. On the top of the soil is placed a predetermined number of seeds or vegetative propagules of various plant species. The soil required to level fill the pans after seeding or adding vegetative propagules is weighed into a pan. A known amount of the active ingredient applied in a solvent or as a wettable powder suspension and the soil are thoroughly mixed, and used as a cover layer for prepared pans. After treatment, the pans are moved into a greenhouse bench where they are watered from below as needed to give adequate moisture for germination and growth.
(§3) Approximately 2-3 weeks after seeding and treating, the plants are observed and the results recorded. The herbicidal rating is obtained by means of fixed scale based on the percent injury of each plant species. The ratings are defined as follows: […]
(§4) The compounds were further tested by utilizing the above procedure on the following plant species: […]

[2] = tested on: Velvetleaf; experiment: Pre-emergent herbicidal activity (Table III)
Experimental: as §1, §2, §3, §4

[3] = tested on: Morningglory; experiment: Pre-emergent herbicidal activity (Table III)
Experimental: as §1, §2, §3, §4

[4] = tested on: Downy Brome; experiment: Pre-emergent herbicidal activity (Table III)
Experimental: as §1, §2, §3, §4

[5] = tested on: Soybean; experiment: Pre-emergent herbicidal activity (Table III)
Experimental: as §1, §2, §3, §4

[6] = tested on: Crabgrass; experiment: Pre-emergent herbicidal activity (Table III)
Experimental: as §1, §2, §3, §4

[7] = tested on: Panicum; experiment: Pre-emergent herbicidal activity (Table III)
Experimental: as §1, §2, §3, §4

[8] = tested on: Cocklebur; experiment: Pre-emergent herbicidal activity (Table III)
Experimental: as §1, §2, §3, §4

[9] = tested on: Barnyardgrass; experiment: Pre-emergent herbicidal activity (Table III)
Experimental: as §1, §2, §3, §4

[10] = tested on: Sorghum; experiment: Pre-emergent herbicidal activity (Table III)
Experimental: as §1, §2, §3, §4

[11] = tested on: Wild Buckwheat; experiment: Pre-emergent herbicidal activity (Table III)
Experimental: as §1, §2, §3, §4

[12] = tested on: Rice; experiment: Pre-emergent herbicidal activity (Table III)
Experimental: as §1, §2, §3, §4

[13] = tested on: Lambsquarters; experiment: Pre-emergent herbicidal activity (Table III)
Experimental: as §1, §2, §3, §4

[14] = tested on: Sugarbeet; experiment: Pre-emergent herbicidal activity (Table III)
Experimental: as §1, §2, §3, §4

[15] = tested on: Smartweed; experiment: Pre-emergent herbicidal activity (Table III)
Experimental: as §1, §2, §3, §4

[16] = tested on: Wheat; experiment: Pre-emergent herbicidal activity (Table III)
Experimental: as §1, §2, §3, §4

[17] = tested on: Velvetleaf; experiment: Pre-emergent herbicidal activity (Table II); conditions: 2-3 weeks
Experimental: as §1, §2, §3
(§5) The plant species utilized in one set of tests, the data for which are shown in Table II, are identified by letter in accordance with the following legend: […]

[18] = tested on: Quackgrass; experiment: Pre-emergent herbicidal activity (Table II); conditions: 2-3 weeks
Experimental: as §1, §2, §3, §5

[19] = tested on: Johnsongrass; experiment: Pre-emergent herbicidal activity (Table II); conditions: 2-3 weeks
Experimental: as §1, §2, §3, §5

[20] = tested on: Morningglory; experiment: Pre-emergent herbicidal activity (Table II); conditions: 2-3 weeks
Experimental: as §1, §2, §3, §5

[21] = tested on: Downy Brome; experiment: Pre-emergent herbicidal activity (Table II); conditions: 2-3 weeks
Experimental: as §1, §2, §3, §5

[22] = tested on: Cocklebur; experiment: Pre-emergent herbicidal activity (Table II); conditions: 2-3 weeks
Experimental: as §1, §2, §3, §5

[23] = tested on: Barnyardgrass; experiment: Pre-emergent herbicidal activity (Table II); conditions: 2-3 weeks
Experimental: as §1, §2, §3, §5

[24] = tested on: Canada Thistle; experiment: Pre-emergent herbicidal activity (Table II); conditions: 2-3 weeks
Experimental: as §1, §2, §3, §5

[25] = tested on: Yellow Nutsedge; experiment: Pre-emergent herbicidal activity (Table II); conditions: 2-3 weeks
Experimental: as §1, §2, §3, §5

[26] = tested on: Lambsquarters; experiment: Pre-emergent herbicidal activity (Table II); conditions: 2-3 weeks
Experimental: as §1, §2, §3, §5

[27] = tested on: Smartweed; experiment: Pre-emergent herbicidal activity (Table II); conditions: 2-3 weeks
Experimental: as §1, §2, §3, §5
Also: ranges in brackets are in %.

CC1=C(N(Cn2c(=O)sc3ccc(Cl)cc32)C(=O)CCl)C(C)CCC1 (stereo not shown) [Example 6, N--[(5-chloro-2-oxo-3(2H)--benzothiazolyl)methyl]-N--(2,6-dimethyl-1-cyclohexen-1-yl)-2-chloroacetamide]
Herbicidal rating ([1]; 1.12 kg/ha): 3 (75-100)
Herbicidal rating ([1]; 5.6 kg/ha): 3 (75-100)
Herbicidal rating ([2]; 1.12 kg/ha): 0 (0-24)
Herbicidal rating ([2]; 5.6 kg/ha): 0 (0-24)
Herbicidal rating ([3]; 1.12 kg/ha): 0 (0-24)
Herbicidal rating ([3]; 5.6 kg/ha): 0 (0-24)
Herbicidal rating ([4]; 1.12 kg/ha): 0 (0-24)
Herbicidal rating ([4]; 5.6 kg/ha): 0 (0-24)
Herbicidal rating ([5]; 1.12 kg/ha): 0 (0-24)
Herbicidal rating ([5]; 5.6 kg/ha): 0 (0-24)
Herbicidal rating ([6]; 1.12 kg/ha): 2 (50-74)
Herbicidal rating ([6]; 5.6 kg/ha): 3 (75-100)
Herbicidal rating ([7]; 1.12 kg/ha): 0 (0-24)
Herbicidal rating ([7]; 5.6 kg/ha): 0 (0-24)
Herbicidal rating ([8]; 1.12 kg/ha): 0 (0-24)
Herbicidal rating ([8]; 5.6 kg/ha): 0 (0-24)
Herbicidal rating ([9]; 1.12 kg/ha): 0 (0-24)
Herbicidal rating ([9]; 5.6 kg/ha): 1 (25-49)
Herbicidal rating ([10]; 1.12 kg/ha): 0 (0-24)
Herbicidal rating ([10]; 5.6 kg/ha): 0 (0-24)
Herbicidal rating ([11]; 1.12 kg/ha): 0 (0-24)
Herbicidal rating ([11]; 5.6 kg/ha): 0 (0-24)
Herbicidal rating ([12]; 1.12 kg/ha): 1 (25-49)
Herbicidal rating ([12]; 5.6 kg/ha): 0 (0-24)
Herbicidal rating ([13]; 1.12 kg/ha): 3 (75-100)
Herbicidal rating ([13]; 5.6 kg/ha): 1 (25-49)
Herbicidal rating ([14]; 1.12 kg/ha): 1 (25-49)
Herbicidal rating ([14]; 5.6 kg/ha): 1 (25-49)
Herbicidal rating ([15]; 1.12 kg/ha): 2 (50-74)
Herbicidal rating ([15]; 5.6 kg/ha): 1 (25-49)
Herbicidal rating ([16]; 1.12 kg/ha): 0 (0-24)
Herbicidal rating ([16]; 5.6 kg/ha): 0 (0-24)
Herbicidal rating ([17]; 5.6 kg/ha): 0 (0-24)
Herbicidal rating ([17]; 11.2 kg/ha): 0 (0-24)
Herbicidal rating ([18]; 5.6 kg/ha): 0 (0-24)
Herbicidal rating ([18]; 11.2 kg/ha): 1 (25-49)
Herbicidal rating ([19]; 5.6 kg/ha): 0 (0-24)
Herbicidal rating ([19]; 11.2 kg/ha): 0 (0-24)
Herbicidal rating ([20]; 5.6 kg/ha): 0 (0-24)
Herbicidal rating ([20]; 11.2 kg/ha): 0 (0-24)
Herbicidal rating ([21]; 5.6 kg/ha): 0 (0-24)
Herbicidal rating ([21]; 11.2 kg/ha): 0 (0-24)
Herbicidal rating ([22]; 5.6 kg/ha): 0 (0-24)
Herbicidal rating ([22]; 11.2 kg/ha): 0 (0-24)
Herbicidal rating ([23]; 5.6 kg/ha): 1 (25-49)
Herbicidal rating ([23]; 11.2 kg/ha): 3 (75-100)
Herbicidal rating ([24]; 5.6 kg/ha): 0 (0-24)
Herbicidal rating ([24]; 11.2 kg/ha): 1 (25-49)
Herbicidal rating ([25]; 5.6 kg/ha): 0 (0-24)
Herbicidal rating ([25]; 11.2 kg/ha): 0 (0-24)
Herbicidal rating ([26]; 5.6 kg/ha): 0 (0-24)
Herbicidal rating ([26]; 11.2 kg/ha): 3 (75-100)
Herbicidal rating ([27]; 5.6 kg/ha): 0 (0-24)
Herbicidal rating ([27]; 11.2 kg/ha): 0 (0-24)

CC1=C(N(Cn2c(=O)sc3ccccc32)C(=O)CCl)C(C)CCC1 (stereo not shown) [Example 9, N--[(2-oxo-3(2H)--benzothiazolyl)methyl]-N--(2,6-dimethyl-1-cyclohexen-1-yl)-2-chloroamide]
Herbicidal rating ([1]; 1.12 kg/ha): 0 (0-24)
Herbicidal rating ([1]; 5.6 kg/ha): 0 (0-24)
Herbicidal rating ([2]; 0.26 kg/ha): 0 (0-24)
Herbicidal rating ([2]; 1.12 kg/ha): 0 (0-24)
Herbicidal rating ([2]; 5.6 kg/ha): 0 (0-24)
Herbicidal rating ([3]; 1.12 kg/ha): 0 (0-24)
Herbicidal rating ([3]; 5.6 kg/ha): 0 (0-24)
Herbicidal rating ([4]; 0.26 kg/ha): 0 (0-24)
Herbicidal rating ([4]; 1.12 kg/ha): 0 (0-24)
Herbicidal rating ([4]; 5.6 kg/ha): 2 (50-74)
Herbicidal rating ([5]; 0.26 kg/ha): 0 (0-24)
Herbicidal rating ([5]; 1.12 kg/ha): 0 (0-24)
Herbicidal rating ([5]; 5.6 kg/ha): 0 (0-24)
Herbicidal rating ([6]; 0.26 kg/ha): 1 (25-49)
Herbicidal rating ([6]; 1.12 kg/ha): 2 (50-74)
Herbicidal rating ([6]; 5.6 kg/ha): 3 (75-100)
Herbicidal rating ([7]; 0.26 kg/ha): 0 (0-24)
Herbicidal rating ([7]; 1.12 kg/ha): 0 (0-24)
Herbicidal rating ([7]; 5.6 kg/ha): 3 (75-100)
Herbicidal rating ([8]; 0.26 kg/ha): 0 (0-24)
Herbicidal rating ([8]; 1.12 kg/ha): 0 (0-24)
Herbicidal rating ([9]; 0.26 kg/ha): 2 (50-74)
Herbicidal rating ([9]; 1.12 kg/ha): 3 (75-100)
Herbicidal rating ([9]; 5.6 kg/ha): 3 (75-100)
Herbicidal rating ([10]; 0.26 kg/ha): 0 (0-24)
Herbicidal rating ([10]; 1.12 kg/ha): 0 (0-24)
Herbicidal rating ([10]; 5.6 kg/ha): 2 (50-74)
Herbicidal rating ([11]; 0.26 kg/ha): 0 (0-24)
Herbicidal rating ([11]; 1.12 kg/ha): 0 (0-24)
Herbicidal rating ([11]; 5.6 kg/ha): 0 (0-24)
Herbicidal rating ([12]; 0.26 kg/ha): 0 (0-24)
Herbicidal rating ([12]; 1.12 kg/ha): 2 (50-74)
Herbicidal rating ([12]; 5.6 kg/ha): 2 (50-74)
Herbicidal rating ([13]; 0.26 kg/ha): 0 (0-24)
Herbicidal rating ([13]; 1.12 kg/ha): 0 (0-24)
Herbicidal rating ([13]; 5.6 kg/ha): 1 (25-49)
Herbicidal rating ([14]; 0.26 kg/ha): 0 (0-24)
Herbicidal rating ([14]; 1.12 kg/ha): 0 (0-24)
Herbicidal rating ([14]; 5.6 kg/ha): 1 (25-49)
Herbicidal rating ([15]; 0.26 kg/ha): 0 (0-24)
Herbicidal rating ([15]; 1.12 kg/ha): 0 (0-24)
Herbicidal rating ([15]; 5.6 kg/ha): 1 (25-49)
Herbicidal rating ([16]; 0.26 kg/ha): 0 (0-24)
Herbicidal rating ([16]; 1.12 kg/ha): 0 (0-24)
Herbicidal rating ([16]; 5.6 kg/ha): 2 (50-74)
Herbicidal rating ([17]; 5.6 kg/ha): 0 (0-24)
Herbicidal rating ([17]; 11.2 kg/ha): 0 (0-24)
Herbicidal rating ([18]; 5.6 kg/ha): 0 (0-24)
Herbicidal rating ([18]; 11.2 kg/ha): 1 (25-49)
Herbicidal rating ([19]; 5.6 kg/ha): 0 (0-24)
Herbicidal rating ([19]; 11.2 kg/ha): 0 (0-24)
Herbicidal rating ([20]; 5.6 kg/ha): 0 (0-24)
Herbicidal rating ([20]; 11.2 kg/ha): 0 (0-24)
Herbicidal rating ([21]; 5.6 kg/ha): 0 (0-24)
Herbicidal rating ([21]; 11.2 kg/ha): 2 (50-74)
Herbicidal rating ([22]; 5.6 kg/ha): 0 (0-24)
Herbicidal rating ([22]; 11.2 kg/ha): 0 (0-24)
Herbicidal rating ([23]; 5.6 kg/ha): 3 (75-100)
Herbicidal rating ([23]; 11.2 kg/ha): 3 (75-100)
Herbicidal rating ([24]; 5.6 kg/ha): 0 (0-24)
Herbicidal rating ([24]; 11.2 kg/ha): 0 (0-24)
Herbicidal rating ([25]; 5.6 kg/ha): 0 (0-24)
Herbicidal rating ([25]; 11.2 kg/ha): 0 (0-24)
Herbicidal rating ([26]; 5.6 kg/ha): 1 (25-49)
Herbicidal rating ([26]; 11.2 kg/ha): 1 (25-49)
Herbicidal rating ([27]; 5.6 kg/ha): 0 (0-24)
Herbicidal rating ([27]; 11.2 kg/ha): 3 (75-100)
